From publication PMC9933715 (Antimicrobial Agents and Chemotherapy, 2023)

Experiments:
[1] = test system: DENV-R2A (Rluc-expressing DENV, serotype 2 strain 16681); test: microbe, parasite or virus in culture; assay type: cell-based, Dengue virus; conditions: Dengue virus, Huh7.5, 48 h, read-out: DENV-R2A replication (fold DMSO) Mean, deconvolution screen, singletons, 50 µM, Huh7.5, 2 days postinfection
[2] = test system: ZIKV-R2A (strain FSS13025); test: microbe, parasite or virus in culture; assay type: cell-based; conditions: Zika virus, Huh7.5, 48 h, read-out: ZIKV-R2A replication (fold DMSO) Mean
Huh7.5 cells = test: Cell viability, CellTiter-Glo luminescent assay; conditions: deconvolution screen, singletons, 50 µM, uninfected Huh7.5

Row | Compound | activity at 50 µM [1] [%] | activity at 50 µM [2] [%] | Cell viability (fold DMSO) Mean (Huh7.5 cells) [fold DMSO]
1 | CC(N)c1cccnc1 (stereo not drawn) [PS-3055, CC(N)c1cccnc1] | 100 | 111 | 0.98
2 | Cc1cc(O)cc(O)n1 [PS-3153, Cc1cc(O)cc(O)n1] | 100 | 109 | 0.97
3 | Oc1ccc2[nH]ccc2c1 [PS-3277, Oc1ccc2[nH]ccc2c1] | 52 | 74 | 1.23
4 | Clc1ccc2nccnc2c1 [PS-3410, Clc1ccc2nccnc2c1] | 95 | 108 | 1.20
5 | CN1CCN(c2ccccc2CN)CC1 [PS-3674, CN1CCN(CC1)c2ccccc2CN] | 60 | 89 | 0.94
6 | NC(=O)C1CCCNC1 (stereo not drawn) [PS-3699, NC(=O)C1CCCNC1] | 95 | 113 | 0.94
7 | Oc1ccc2ncccc2c1 [PS-3719, Oc1ccc2ncccc2c1] | 93 | 107 | 1.19
8 | Cc1ccnc2ccccc12 [PS-3771, Cc1ccnc2ccccc12] | 101 | 107 | 0.92
9 | Nc1ccc(Cl)cc1Br [PS-3798, Nc1ccc(Cl)cc1Br] | 94 | 111 | 0.99
10 | COC(=O)c1cc(Br)no1 [PS-3994, COC(=O)c1onc(Br)c1] | 98 | 114 | 1.07
11 | Nc1cccc(Cl)c1Cl [PS-4077, Nc1cccc(Cl)c1Cl] | 96 | 120 | 0.97
12 | Nc1ccccc1N1CCCCC1 [PS-4134, Nc1ccccc1N2CCCCC2] | 111 | 107 | 1.12
13 | Cc1onc(-c2ccccc2)c1CN [PS-4242, Cc1onc(c1CN)c2ccccc2] | 91 | 103 | 0.92
14 | N[C@@H]1c2ccccc2C[C@@H]1O [PS-4272, N[C@H]1[C@@H](O)Cc2ccccc12] | 93 | 102 | 1.08
15 | OCC1CN(Cc2ccccc2)CCO1 (stereo not drawn) [PS-4274, OCC1CN(Cc2ccccc2)CCO1] | 100 | 116 | 1.11
16 | Cc1ccnn1-c1ccccc1 [PS-4283, Cc1ccnn1c2ccccc2] | 104 | 106 | 1.07
17 | COc1ccc(CO)c(OC)c1 [PS-4550, COc1ccc(CO)c(OC)c1] | 31 | 34 | 0.92
18 | Cc1onc(-c2ccccc2)c1N [PS-4715, Cc1onc(c1N)c2ccccc2] | 88 | 113 | 1.05
19 | Clc1[nH]ccc2nccc1-2 [PS-4776, Clc1[nH]ccc2nccc12] | 84 | 100 | 1.13
20 | O=C(C1CCNCC1)N1CCCC1 [PS-4906, O=C(C1CCNCC1)N2CCCC2] | 97 | 117 | 0.90
21 | Cc1cc(O)nc2ccc(O)cc12 [PS-4921, Cc1cc(O)nc2ccc(O)cc12] | 92 | 83 | 1.00
22 | CN(C)C(=O)c1ccccc1Br [PS-4942, CN(C)C(=O)c1ccccc1Br] | 107 | 112 | 1.07
23 | Nc1ccc(Cl)nn1 [PS-5236, Nc1ccc(Cl)nn1] | 108 | 108 | 1.18
24 | Nc1cccc(Cl)c1 [PS-5280, Nc1cccc(Cl)c1] | 111 | 116 | 0.98
25 | N[C@H]1CC[C@H](O)CC1 [PS-5466, N[C@@H]1CC[C@@H](O)CC1] | 96 | 115 | 0.99
26 | Cc1ncccc1C(=O)O [PS-5559, Cc1ncccc1C(=O)O] | 102 | 104 | 0.92
27 | O=C(O)Cc1ccc(O)cc1 [PS-5568, OC(=O)Cc1ccc(O)cc1] | 97 | 103 | 0.98
